Patent publication USH1992H, “Metalloproteinase inhibitors, pharmaceutical compositions containing them, and their pharmaceutical uses” (Agouron Pharmaceuticals, Inc., priority 1999, dated 2001)

Tests used:
Assay type in all cases: biochemical
[1] = target: T1, human stromelysin-1 (Strom) (Homo sapiens, UniProt P08254); assay: Inhibition of stromelysin (Strom) - fluorogenic MCA peptide substrate hydrolysis; conditions: catalytic domain; Ki,app; MCA peptide substrate 10 μM, pH 7.5, 37° C., 2% DMSO; enzyme 1.5 nM
T1 construct: The catalytic domain of human stromelysin (Sln) was obtained by expression and purification of a C-terminally truncated prostromelysin-1; made in house; host or cells: E. coli BL21
Description: The catalytic domain of human stromelysin (Sln) was obtained by expression and purification of a C-terminally truncated prostromelysin-1 from E. coli host BL21 (see Marcy et al. Biochem., 1991, 30, 6476, which article is entirely incorporated herein by reference). The subsequent activation of the mature form (Sln) was completed with 2mM APMA for 1 hour at 37° C., followed by separation using a sizing column.
(§1) Assays were performed in assay buffer (50 mM Tricine pH 7.5, 200 mM sodium chloride, 10 mM calcium chloride, 0.5 mM zinc acetate containing 2% dimethyl sulfoxide (DMSO)), once the substrate and inhibitor were diluted into it. Stock solutions of inhibitors were prepared in 100 % DMSO. Stock solutions of the substrate were prepared in 100 % DMSO at a concentration of 6 mM.
(§2) The assay method was based on the hydrolysis of MCA-Pro-Leu-Gly-Leu-DPA-Ala-Arg-NH2 (American Peptide Co.) at 37° C. (see Knight, C. G. et al., FEBS, 1992, 296, 263-266, which article is entirely incorporated herein by reference). The fluorescence changes were monitored with a Perkin-Elmer LS-50B fluorimeter using an excitation wavelength of 328 nm and an emission wavelength of 393 nm. The substrate concentration used in the assays was 10 μM. The inhibitor was diluted into the assays from a solution in 100 % DMSO, and controls substituted an equal volume of DMSO so that the final DMSO concentration from inhibitor and substrate dilution in all assays was 2%. […] Proper determination of steady-state rates of substrate cleavage required assay lengths of 60 minutes to allow for complete equilibration of the enzyme-inhibitor complex.
(§3) The Km for the MCA peptide substrate with the matrix metalloproteinases is quite high and exceeds its solubility under assay conditions. Consequently, the apparent Ki (Ki, app) was determined to describe the strength of inhibition. However, in this case, Ki,app would be essentially equal to Ki since [S]<<Km. For the determination of Ki,app, the concentration of the inhibitor was varied at a constant and low concentration of substrate, and the steady-state rates of fluorescence change were determined. In most cases, absorptive quench due to the presence of ligand was not observed. For slow-binding inhibitors, onset of inhibition curves were collected for at least 45 minutes so that equilibrium was established. Steady-state rates of fluorescence change were obtained by fitting a curve to an equation for a single exponential decay containing a linear phase. The fitted value of the linear phase was taken as the steady-state rate. The steady-state rates were fitted to the Michaelis equation describing competitive inhibition by non-linear methods. Data resulting from tight-binding inhibition was analyzed, and Ki,app determined by fitting the data to the tight-binding equation of Morrison (Biochem. Biophys. Acta, vol. 185, pp. 269-286 (1969), which article is entirely incorporated herein by reference) by non-linear methods.
(§4) All Ki values are in nM units.

[2] = target: T2, human collagenase-1 (HFC) (Homo sapiens, UniProt P03956); assay: Inhibition of collagenase-1 (HFC) - fluorogenic MCA peptide substrate hydrolysis; conditions: catalytic domain; Ki,app; MCA peptide substrate 10 μM, pH 7.5, 37° C., 2% DMSO
T2 construct: the fibroblast collagenase-1 catalytic domain (HFC) was released; ubiquitin (fusion) (cleaved yes); made in house; host or cells: E. coli
T2 sequence (P03956 100-269 limits assumed): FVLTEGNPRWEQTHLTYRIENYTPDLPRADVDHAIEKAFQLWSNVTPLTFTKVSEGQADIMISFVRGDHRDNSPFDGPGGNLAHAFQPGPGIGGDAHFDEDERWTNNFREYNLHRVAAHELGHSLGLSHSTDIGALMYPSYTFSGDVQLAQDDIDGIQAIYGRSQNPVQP
From the text: The catalytic domain of human collagenase-1 was expressed as a fusion protein with ubiquitin in E. coli (see Gehring, E. R., J. Biol. Chem., 1995, 270, 22507, which article is entirely incorporated herein by reference). After purification of the fusion protein, the fibroblast collagenase-1 catalytic domain (HFC) was released either by treatment with purified, active stromelysin-1 (1:50 w/w ratio), which generated nearly 100% N-terminal Phe1, or by autoprocessing the concentrated collagenase-1 fusion and then incubating at 37° C. for 1 hour. Final purification was completed using zinc chelate chromatography.
as §1, §2, §3, §4

[3] = target: human collagenase-3 (Coll-3); assay: Inhibition of collagenase-3 (Coll-3) - fluorogenic MCA peptide substrate hydrolysis; conditions: catalytic domain; Ki,app; MCA peptide substrate 10 μM, pH 7.5, 37° C., 2% DMSO
Description: The propeptide and catalytic domain of human collagenase-3 (Coll3) was expressed in E. coli as an N-terminal fusion protein with ubiquitin. After purification of the fusion from inclusion bodies, the catalytic domain was liberated by treatment with 2mM APMA at room temperature overnight. Final purification was completed using copper chelate chromatography.
as §1, §2, §3, §4

human matrilysin (Matr) = target: T3, human matrilysin (Matr) (Homo sapiens, UniProt P09237); assay: Inhibition of matrilysin (Matr) - fluorogenic MCA peptide substrate hydrolysis; conditions: catalytic domain; Ki,app; MCA peptide substrate 10 μM, pH 7.5, 37° C., 2% DMSO
T3 construct: the catalytic domain was liberated by treatment with 2mM APMA; ubiquitin (fusion) (cleaved yes); made in house; host or cells: E. coli
T3 sequence (P09237 95-267): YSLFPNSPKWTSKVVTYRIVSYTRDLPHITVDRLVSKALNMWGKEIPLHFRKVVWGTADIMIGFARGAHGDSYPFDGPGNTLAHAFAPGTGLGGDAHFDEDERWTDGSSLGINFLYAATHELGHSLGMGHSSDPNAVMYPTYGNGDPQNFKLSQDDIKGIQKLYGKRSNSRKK
Description: Human matrilysin (Matr) was expressed in E. coli as a fusion protein with ubiquitin. After purification of the matrilysin/ubiquitin fusion from inclusion bodies, the catalytic domain was liberated by treatment with 2mM APMA at 37 ° C. for 2 hours. Final purification was complete using copper chelate chromatography.
as §1, §2, §3, §4

[4] = target: human gelatinase A (Gel A); assay: Inhibition of gelatinase A (Gel A) - fluorogenic MCA peptide substrate hydrolysis; conditions: catalytic and fibronectin-like portion; Ki,app; MCA peptide substrate 10 μM, pH 7.5, 37° C., 2% DMSO; enzyme 60 pM
Description: The catalytic and fibronectin-like portion of human progelatinase A (GelA) was expressed as a fusion protein with ubiquitin in E. Coli. Assays were carried out on autocatalytically activated material.
as §1, §2, §3, §4

T1 sequence (P08254 100-272 limits assumed): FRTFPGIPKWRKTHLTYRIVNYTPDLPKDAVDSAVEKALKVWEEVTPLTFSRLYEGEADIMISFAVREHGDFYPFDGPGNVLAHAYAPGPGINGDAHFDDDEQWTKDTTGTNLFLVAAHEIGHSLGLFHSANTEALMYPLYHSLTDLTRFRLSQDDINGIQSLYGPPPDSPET

SMILES | Ki [1] [nM] | Ki [2] [nM] | Ki [3] [nM] | Ki (human matrilysin (Matr)) [nM] | Ki [4] [nM]
CC(C)[C@H](C(=O)NO)N(Cc1cccnc1)S(=O)(=O)c1ccc(Oc2ccc(Br)cc2)cc1 [Example 3(a), 2(R)-2-[4-(4-Bromophenoxy)benzenesulfonyl][(pyridin-3-yl)methyl]amino-N-hydroxy-3-methylbutanamide] | 0.35 | 7.6 | 0.02 | – | –
CC(C)[C@H](C(=O)NO)N(Cc1cccnc1)S(=O)(=O)c1ccc(Oc2ccccc2)cc1 [Example 3(b), 2(R)-N-hydroxy-2-[(4-phenoxy)benzenesulfonyl][(pyridin-3-yl)methyl]amino-3-methylbutanamide] | 1.2 | 6 | 0.05 | – | –
CCOP(=O)(CN(CC(=O)O)S(=O)(=O)c1ccc(Oc2ccccc2)cc1)OCC [Example 4(a), 2(R)-2-[(diethylphosphonomethyl)(4-phenoxybenzenesulfonyl)-amino]-acetic acid] | 27000 | – | 740 | – | –
CCOP(=O)(CN(CC(=O)NO)S(=O)(=O)c1ccc(Oc2ccccc2)cc1)OCC [Example 4, 2(R)-2-[(diethylphosphonomethyl)(4-phenoxybenzenesulfonyl)amino]-N-hydroxyacetamide] | 0.23 | 27 | 0.09 | – | –
O=C(O)[C@H]1CCCCN1S(=O)(=O)c1ccc(Oc2ccc(Br)cc2)cc1 [Example 5(a)] | 16000 | 481000 | 448 | 540000 | 192
O=C(NO)[C@H]1CCCCN1S(=O)(=O)c1ccc(Oc2ccc(Br)cc2)cc1 [Example 5, 2(R)-1-[4-(4-Bromophenoxy)benzenesulfonyl]-N-hydroxypiperidine-2-carboxamide] | 0.04 | 15 | 0.014 | 44 | 0.018

Further lines, results first:

Ki [1] [nM] | Ki [2] [nM] | Ki [3] [nM] | Ki (human matrilysin (Matr)) [nM] | Ki [4] [nM] | SMILES
2190 | 125000 | 212 | 72000 | 64 | O=C(O)[C@H]1CCCCN1S(=O)(=O)c1ccc(Oc2ccc(-c3ccccc3)cc2)cc1 [Example 6(a)]
0.06 | 8.8 | – | 6.7 | 0.014 | O=C(NO)[C@H]1CCCCN1S(=O)(=O)c1ccc(Oc2ccc(-c3ccccc3)cc2)cc1 [Example 6, 2(R)-1-[4-(Biphenyl-4-yl)oxybenzenesulfonyl]-N-hydroxy-piperidine-2-carboxamide]
0.07 | 6.6 | – | 55 | – | O=C(NO)[C@H]1CCCCN1S(=O)(=O)c1ccc(Oc2ccccc2)cc1 [Example 7, 2(R)-1-(4-Phenoxy-benzenesulfonyl)-N-hydroxy-piperidine-2-carboxamide]
